Test results published in patent publication US6432952B1, “Polymorphic form of a tachykinin receptor antagonist” (Merck & Co., Inc., priority 1999, dated 2002).
Read-outs that look alike come from different tables or passages of the source.

How the values were obtained:
[1] = Solubility in isopropyl acetate; format: physicochemical
Protocol: Solubility The solubility of Form I of 2-(R)-(1-(R)-(3,5-bis(trifluoromethyl)-phenyl)ethoxy)-4-(5-(dimethylamino)methyl-1,2,3-triazol-4-yl)methyl-3-(S)-(4-fluorophenyl)morpholine hydrochloride in isopropyl acetate at 25° C. was determined to be 7.4±0.3 mg/ml.

[2] = Stability of the crystalline form as neat solid; format: physicochemical
[3] = test system: retching and vomiting induced by cisplatin; assay: Ferret model of cisplatin-induced emesis (Tattersall et al.); format: in vivo

Row | solubility [1] [µg/mL] | solubility ([1]; 25 °C, organic solvent or mixture, solubility) [µg/mL] | thermodynamic stability of Form I over Form II, from the ratio of the solubilities ([1]; at 25° C., isopropyl acetate) | thermal stability ([2]; as a neat solid) | SMILES | thermodynamic stability relative to the other form ([2]; Form I versus Form II) | effect on retching and vomiting induced by cisplatin [3]
1 | 10900 ± 1100 | 7400 ± 300 | approximately 0.2 kcal/mol | high degree of thermal stability | C[C@@H](O[C@H]1OCCN(Cc2nn[nH]c2CN(C)C)[C@H]1c1ccc(F)cc1)c1cc(C(F)(F)F)cc(C(F)(F)F)c1.Cl [Form I, 2-(R)-(1-(R)-(3,5-bis(trifluoromethyl)phenyl)ethoxy)-4-(5-(dimethylamino)methyl-1,2,3-triazol-4-yl)methyl-3-(S)-(4-fluorophenyl)morpholine hydrochloride] | thermodynamically more stable than Form II | 
2 |  |  |  |  | C[C@@H](O[C@H]1OCCN(Cc2nn[nH]c2CN(C)C)[C@H]1c1ccc(F)cc1)c1cc(C(F)(F)F)cc(C(F)(F)F)c1.Cl [compound of the present invention, 2-(R)-(1-(R)-(3,5-bis(trifluoromethyl)phenyl)ethoxy)-4-(5-(dimethylamino)methyl-1,2,3-triazol-4-yl)methyl-3-(S)-(4-fluorophenyl)-morpholine hydrochloride] |  | attenuate the retching and vomiting induced by cisplatin
